Measurements published in patent US7148232B2, “Oxazolo, thiazolo and selenazolo [4,5-c]-quinolin-4-amines and analogs thereof” (3M Innovative Properties Company, priority 1998, dated 2006).
Where a name gives a salt, the structure may show the parent alone. Blank lines part the entries; values can stand above or below the compound they belong to.

How the values were obtained:
interferon (α) [1] = test: Interferon (α) induction in human cells (in vitro human blood cell system, interferon by bioassay); format: cell-based; conditions: human PBM's, 48 hours
Description: An in vitro human blood cell system was used to assess interferon induction by compounds of the invention. Activity is based on the measurement of interferon secreted into culture media. Interferon is measured by bioassay.
Whole blood is collected by venipuncture into EDTA vacutainer tubes. Peripheral blood mononuclear cells (PBM's) are separated from whole blood by using either LeucoPREP™ Brand Cell Separation Tubes (available from Becton Dickinson) or Ficoll-Paque® solution (available from Pharmacia LKB Biotechnology Inc, Piscataway, N.J.). […] 200 μL portions of PBM suspension are added to 96 well (flat bottom) sterile tissue culture plates (Becton Dickinson Labware, Lincoln Park, N.J.).
The compounds are solubilized in ethanol, dimethyl sulfoxide or tissue culture water then diluted with tissue culture water, 0.01N sodium hydroxide or 0.01N hydrochloric acid (The choice of solvent will depend on the chemical characteristics of the compound being tested.). Ethanol or DMSO concentration should not exceed a final concentration of 1% for addition to the culture wells. Compounds are initially tested in a concentration range of from about 0.1 μg/mL to about 5 μg/mL. Compounds which show induction at a concentration of 0.5 μg/mL are then tested in a wider concentration range.
The solution of test compound is added in a volume (less than or equal to 50 μL) to the wells containing 200 μL of diluted whole blood or of PBM's in media. Solvent and/or media is added to control wells (wells with no test compound) and as needed to adjust the final volume of each well to 250 μL. The plates are covered with plastic lids, vortexed gently and then incubated for 48 hours at 37° C. with a 5% carbon dioxide atmosphere.
Following incubation, the plates are covered with parafilm and then centrifuged at 1000 rpm for 10 to 15 minutes at 4° C. in a Damon IEC Model CRU-5000 centrifuge. Media (about 200 μL) is removed from 4 to 8 wells and pooled into 2 mL sterile freezing vials. Samples are maintained at −70° C. until analysis.
Interferon is determined by bioassay using A549 human lung carcinoma cells challenged with encephalomyocarditis. The details of the bioassay method have been described by G. L. Brennan and L. H. Kronenberg in “Automated Bioassay of Interferons in Micro-test Plates”, Biotechniques, June/Jul. […] The incubated cells are infected with an inoculum of encephalomyocarditis virus. The infected cells are incubated for an additional period at 37° C. before quantifying for viral cytopathic effect. The viral cytopathic effect is quantified by staining followed by spectrophotometric absorbance measurements. Results are expressed as alpha reference units/mL based on the value obtained for NIH HU IF-L standard.
Compounds of the invention were tested for their ability to induce interferon in human cells using the test method described above.

interferon (α) [2] = test: Cytokine induction in human cells: interferon (α) secreted by PBMCs (ELISA or bioassay); format: cell-based; conditions: 18 to 24 hours
Description: (§1) An in vitro human blood cell system was used to assess cytokine induction by compounds of the invention.
(§2) Whole blood is collected by venipuncture into EDTA vacutainer tubes from healthy human donors. […] The PBMC suspension is added to 48 well flat bottom sterile tissue culture plates (Costar, Cambridge, Mass. or Becton Dickinson Labware, Lincoln Park, N.J.) containing an equal volume of RPMI complete media containing test compound.
(§3) The compounds are solubilized in dimethyl sulfoxide (DMSO). The DMSO concentration should not exceed a final concentration of 1% for addition to the culture wells.
(§4) The solution of test compound is added at 60 μM to the first well containing RPMI complete and serial 3 fold dilutions are made. The PBMC suspension is then added to the wells in an equal volume, bringing the test compound concentrations to the desired range (0.12 to 30 μM). The final concentration of PBMC suspension is 1.5–2×10^6 cells/mL. The plates are covered with sterile plastic lids, mixed gently and then incubated for 18 to 24 hours at 37° C. in a 5% carbon dioxide atmosphere.
(§5) Following incubation the plates are centrifuged for 5–10 minutes at 1000 rpm (˜200×g) at 4° C. The cell culture supernatant is removed with a sterile polypropylene pipet and transferred to sterile polypropylene tubes. Samples are maintained at −30 to −70° C. until analysis. The samples are analyzed for interferon (α) by either ELISA or bioassay and for tumor necrosis factor (α) by ELISA
Interferon is determined by bioassay using A549 human lung carcinoma cells challenged with encephalomyocarditis. […] Briefly stated the method is as follows: A549 cells are incubated with dilutions of samples or a standard interferon at 37° C. for 24 hours. The incubated cells are then infected with an inoculum of encephalomyocarditis virus. The infected cells are incubated for an additional 24 hours at 37° C. before evaluating for viral cytopathic effect. The viral cytopathic effect is quantified by staining with crystal violet followed by visual scoring of the plates. Results are expressed as alpha reference units/mL based on the value obtained for NIH Human Leukocyte IFN standard.
Interferon (α) concentration is determined by ELISA using a Human Multi-Species kit from PBL Biomedical Laboratories, New Brunswick, N.J. according to the manufacturer's instructions.

[3] = test system: tumor necrosis factor (α); test: Cytokine induction in human cells: tumor necrosis factor (α) secreted by PBMCs (ELISA); format: cell-based; conditions: 18 to 24 hours
Description: as §1, §2, §3, §4, §5
Tumor necrosis factor (α) (TNF) concentration is determined using ELISA kits available from Genzyme, Cambridge, Mass.; R&D Systems, Minneapolis, Minn.; or Pharmingen, San Diego, Calif. according to the manufacturer's instructions.

- melting point: 268 to 270 °C
SMILES: CCc1nc2c(N)nc3ccccc3c2s1.Cl

- melting point: 152 to 155 °C
SMILES: Nc1nc2ccccc2c2sc(Cc3ccccc3)nc12 (as salt: hydrochloride) [Example 34, 2-Benzylthiazolo[4,5-c]quinolin-4-amine Hydrochloride]

SMILES: CCCc1nc2c(N)nccc2s1 (as salt: trifluoroacetate) [Example 62, 2-Propylpyrido[3,4-d][1,3]thiazol-4-amine Trifluoroacetate]
- melting point: 160 to 162 °C

SMILES: Cl.Nc1nc2ccccc2c2scnc12.O (hydrate or solvate) [Example 5, Thiazolo[4,5-c]quinolin-4-amine Hydrochloride Hydrate]
- melting point: 284 to 285 °C

SMILES: Cl.Nc1nc2ccccc2c2scnc12.O [Example 5, Thiazolo[4,5-c]quinolin-4-amine Hydrochloride Hydrate]
- Interferon (α) Induction in Human Cells (interferon (α) [1]; Dose Concentration 0.01 μg/mL): −
- Interferon (α) Induction in Human Cells (interferon (α) [1]; Dose Concentration 0.05 μg/mL): −
- Interferon (α) Induction in Human Cells (interferon (α) [1]; Dose Concentration 0.10 μg/mL): −
- Interferon (α) Induction in Human Cells (interferon (α) [1]; Dose Concentration 0.50 μg/mL): −
- Interferon (α) Induction in Human Cells (interferon (α) [1]; Dose Concentration 1.0 μg/mL): +
- Interferon (α) Induction in Human Cells (interferon (α) [1]; Dose Concentration 5.0 μg/mL): +
- Interferon (α) Induction in Human Cells (interferon (α) [1]; Dose Concentration 10.0 μg/mL): +
- Interferon (α) Induction in Human Cells (interferon (α) [1]; Dose Concentration 25.0 μg/mL): +
- Interferon (α) Induction in Human Cells (interferon (α) [1]; Dose Concentration 50.0 μg/mL): +

SMILES: Nc1nc2ccccc2c2scnc12 [Example 6, Thiazolo[4,5-c]quinolin-4-amine]
- melting point: 172.4 °C (dec.)

- melting point: 128 °C
SMILES: CCc1nc2c[n+]([O-])c3ccccc3c2s1 [Example 7, 2-Ethylthiazolo[4,5-c]quinoline-5N-oxide]

- melting point: 123 °C
SMILES: CCCc1nc2c[n+]([O-])c3ccccc3c2s1 [Example 11, 2-Propylthiazolo[4,5-c]quinoline-5N-oxide]

- melting point: 142 to 144 °C
SMILES: CCCCCc1nc2c[n+]([O-])c3ccccc3c2s1 [Example 15, 2-Pentylthiazolo[4,5-c]quinoline-5N-oxide]

- melting point: 133 to 135 °C
SMILES: CCCCc1nc2c[n+]([O-])c3ccccc3c2s1 [Example 17, 2-Butylthiazolo[4,5-c]quinoline-5N-oxide]

SMILES: CCCCc1nc2c(N)nc3ccccc3c2s1 [Example 18, 2-Butylthiazolo[4,5-c]quinolin-4-amine]
- Interferon (α) Induction in Human Cells (interferon (α) [1]; Dose Concentration 0.01 μg/mL): −
- Interferon (α) Induction in Human Cells (interferon (α) [1]; Dose Concentration 0.05 μg/mL): −
- Interferon (α) Induction in Human Cells (interferon (α) [1]; Dose Concentration 0.10 μg/mL): +
- Interferon (α) Induction in Human Cells (interferon (α) [1]; Dose Concentration 0.50 μg/mL): +
- Interferon (α) Induction in Human Cells (interferon (α) [1]; Dose Concentration 1.0 μg/mL): +
- Interferon (α) Induction in Human Cells (interferon (α) [1]; Dose Concentration 5.0 μg/mL): +
- Interferon (α) Induction (interferon (α) [2]; Dose Concentration 0.12 μM): −
- Interferon (α) Induction (interferon (α) [2]; Dose Concentration 0.37 μM): −
- Interferon (α) Induction (interferon (α) [2]; Dose Concentration 1.11 μM): +
- Interferon (α) Induction (interferon (α) [2]; Dose Concentration 3.33 μM): +
- Interferon (α) Induction (interferon (α) [2]; Dose Concentration 10 μM): +
- Interferon (α) Induction (interferon (α) [2]; Dose Concentration 30 μM): +
- Tumor Necrosis Factor Induction ([3]; Dose Concentration 0.12 μM): +
- Tumor Necrosis Factor Induction ([3]; Dose Concentration 0.37 μM): +
- Tumor Necrosis Factor Induction ([3]; Dose Concentration 1.11 μM): +
- Tumor Necrosis Factor Induction ([3]; Dose Concentration 3.33 μM): +
- Tumor Necrosis Factor Induction ([3]; Dose Concentration 10 μM): +
- Tumor Necrosis Factor Induction ([3]; Dose Concentration 30 μM): +

- melting point: 268 to 270 °C
SMILES: [O-][n+]1cc2nc(/C=C/c3ccccc3)sc2c2ccccc21 [Example 21, 2-(2-Phenyl-1-ethenyl)thiazolo[4,5-c]quinoline-5N-oxide]

- melting point: 165 to 169 °C
SMILES: [O-][n+]1cc2nc(CCc3ccccc3)sc2c2ccccc21 [Example 23, 2-(2-Phenyl-1-ethyl)thiazolo[4,5-c]quinoline-5N-oxide]

- melting point: 187 to 189 °C
SMILES: CC(C)(O)Cc1nc2c[n+]([O-])c3ccccc3c2s1 [Example 25, 2-Methyl-1-(thiazolo[4,5-c]quinolin-2-yl)-2-propanol-5N-oxide]

- melting point: 138 to 140 °C
SMILES: CCOCc1nc2c[n+]([O-])c3ccccc3c2s1 [Example 27, 2-(Ethoxymethyl)thiazolo[4,5-c]quinoline-5N-oxide]

- melting point: 185 to 186 °C
SMILES: [O-][n+]1cc2nc(Cc3ccccc3)sc2c2ccccc21 [Example 33, 2-Benzylthiazolo[4,5-c]quinoline-5N-oxide]

SMILES: Nc1nc2ccccc2c2sc(Cc3ccccc3)nc12 [Example 34, 2-Benzylthiazolo[4,5-c]quinolin-4-amine Hydrochloride]
- Interferon (α) Induction in Human Cells (interferon (α) [1]; Dose Concentration 0.01 μg/mL): −
- Interferon (α) Induction in Human Cells (interferon (α) [1]; Dose Concentration 0.05 μg/mL): −
- Interferon (α) Induction in Human Cells (interferon (α) [1]; Dose Concentration 0.10 μg/mL): −
- Interferon (α) Induction in Human Cells (interferon (α) [1]; Dose Concentration 0.50 μg/mL): −
- Interferon (α) Induction in Human Cells (interferon (α) [1]; Dose Concentration 1.0 μg/mL): −
- Interferon (α) Induction in Human Cells (interferon (α) [1]; Dose Concentration 5.0 μg/mL): −

- melting point: 143 to 145 °C
SMILES: CCCc1nc2c[n+]([O-])c3ccc(C)cc3c2s1 [Example 35, 8-Methyl-2-propylthiazolo[4,5-c]quinoline-5N-oxide]

- melting point: 120 to 121 °C
SMILES: CCCCc1nc2c[n+]([O-])c3ccccc3c2o1 [Example 40, 2-Butyloxazolo[4,5-c]quinoline-5N-oxide]

SMILES: CCCCc1nc2c(N)nc3ccccc3c2o1 [Example 41, 2-Butyloxazolo[4,5-c]quinolin-4-amine]
- Interferon (α) Induction in Human Cells (interferon (α) [1]; Dose Concentration 0.01 μg/mL): +
- Interferon (α) Induction in Human Cells (interferon (α) [1]; Dose Concentration 0.05 μg/mL): +
- Interferon (α) Induction in Human Cells (interferon (α) [1]; Dose Concentration 0.10 μg/mL): +
- Interferon (α) Induction in Human Cells (interferon (α) [1]; Dose Concentration 0.50 μg/mL): +
- Interferon (α) Induction in Human Cells (interferon (α) [1]; Dose Concentration 1.0 μg/mL): +
- Interferon (α) Induction in Human Cells (interferon (α) [1]; Dose Concentration 5.0 μg/mL): +

- melting point: 245 to 247 °C
SMILES: CS(=O)(=O)c1nc2c[n+]([O-])c3ccccc3c2s1 [Example 51, 2-(Methylsulfonyl)thiazolo[4,5-c]quinolin-5N-oxide]

- melting point: 241 to 242 °C
SMILES: [O-][n+]1cc2nc(N3CCOCC3)sc2c2ccccc21 [Example 52, 2-(4-Morpholino)thiazolo[4,5-c]quinoline-5N-oxide]

- melting point: 65 to 69 °C
SMILES: CCCCc1nc2c[n+]([O-])c3cccnc3c2s1 [Example 57, 2-Butylthiazolo[4,5-c][1,5]naphthyridine-5N-oxide]

SMILES: CCCc1nc2c(N)nccc2s1 [Example 62, 2-Propylpyrido[3,4-d][1,3]thiazol-4-amine Trifluoroacetate]
- Interferon (α) Induction (interferon (α) [2]; Dose Concentration 0.12 μM): −
- Interferon (α) Induction (interferon (α) [2]; Dose Concentration 0.37 μM): −
- Interferon (α) Induction (interferon (α) [2]; Dose Concentration 1.11 μM): −
- Interferon (α) Induction (interferon (α) [2]; Dose Concentration 3.33 μM): −
- Interferon (α) Induction (interferon (α) [2]; Dose Concentration 10 μM): −
- Interferon (α) Induction (interferon (α) [2]; Dose Concentration 30 μM): −
- Tumor Necrosis Factor Induction ([3]; Dose Concentration 0.12 μM): −
- Tumor Necrosis Factor Induction ([3]; Dose Concentration 0.37 μM): −
- Tumor Necrosis Factor Induction ([3]; Dose Concentration 1.11 μM): −
- Tumor Necrosis Factor Induction ([3]; Dose Concentration 3.33 μM): −
- Tumor Necrosis Factor Induction ([3]; Dose Concentration 10 μM): −
- Tumor Necrosis Factor Induction ([3]; Dose Concentration 30 μM): −
